Results taken from US20210181182A1, “METHOD FOR IDENTIFICATION OF PERTURBAGENS OF PARTICULAR BIOLOGICAL PROCESSES AND CELL SYSTEMS WITHIN LIVING CELLS” (priority 2018, published 2021).
Like-named read-outs stand apart in the source and are kept apart here. Marks after values point to notes of the source that are not given here.

What was measured:
DNA damage = assay: FACTORIAL assay: weak / strong DNA damage TFAP clusters; assay type: cell-based, human; settings: HepG2, 24 h, all tested concentrations
[1] = tested on: mitochondria membrane potential; settings: HepG2, 1-hour incubation at concentrations below 60 μM; cited from earlier work
HG19/HepG2 cells = assay type: cell-based
Protocol: Cell viability was evaluated by the XTT (2,3-Bis-(2-Methoxy-4-Nitro-5-Sulfophenyl)-2H-Tetrazolium-5-Carboxanilide) assay (ATCC) in HG19/HepG2 cells. As a baseline, cells are used that were treated with corresponding dilutions of the vehicle (DMSO). The viability data are an average of two replicates. The viability threshold was set at 80% viability.

[2] = tested on: mitochondrial electron transport chain (mETC); assay: FACTORIAL assay: similarity of TFAP to the consensus (invariant) mETC TFAP; assay type: cell-based, human
Akt kinase = assay: FACTORIAL assay: similarity of TFAP to the invariant signature of Akt inhibitors; assay type: cell-based, human; settings: for retrieved by querying the TFAP database with the invariant signature for AKT inhibitors: database of over 30,000 signatures
CDK = assay type: cell-based, human; settings: HepG2, 24 h
HDAC = assay: FACTORIAL assay: similarity of TFAP to the consensus HDAC inhibitor TFAP; assay type: cell-based, human; settings: for retrieved by querying the Attagene dataset with the HDAC TFAP: HepG2, ToxCast TFAP dataset
HepG2 cells [3] = assay: FACTORIAL assay: query of TFAPs against reference compound signatures of the Attagene TFAP database; assay type: cell-based, human; settings: HepG2, 24 h
[4] = in humans; cited from earlier work
HepG2 cells [5] = assay: FACTORIAL assay: transition of the TFAP signature of glitazones with concentration; assay type: cell-based, human; settings: HepG2, 24-hour treatment
[6] = tested on: ubiquitin (Ub)/proteasome pathway (UPP); assay: FACTORIAL assay: similarity of TFAP to the consensus UPP TFAP; assay type: cell-based, human
[7] = HepG2, 24 h incubation, each value at the concentration [uM]

Row | Compound | MMP assay hitCall [1] | Pearson correlation with the mETC TFAP, r [2, 7] | further results
1 | O=c1[nH]cc(F)c(=O)[nH]1 [5-fluorouracil] | – | – | DNA damage TFAP elicited (weak or strong damage cluster) (DNA damage): only the weak damage TFAP
2 | N.N.[Cl][Pt][Cl] [Cisplatin, reference compound] | 0* | 0.824 | cell numbers at the end of incubation (HG19/HepG2 cells): significantly reduced cell numbers
3 | C[S+](C)[O-] [DMSO] | – | – | retrieved by querying the TFAP database with the invariant signature for AKT inhibitors (Akt kinase): retrieved
4 | CCc1cnn2c(NCc3ccc[n+]([O-])c3)cc(N3CCCC[C@H]3CCO)nc12 [Dinaciclib, reference compound] | – | – | similarity r to the invariant signature for CDK inhibitors (CDK; over three logs of concentrations): > 0.85
5 | CC(C)NC[C@@H](C(=O)N1CCN(c2ncnc3c2[C@H](C)C[C@H]3O)CC1)c1ccc(Cl)cc1 [GDC-0068, Ipatasertib, reference compound] | – | – | similarity r to the invariant signature of AKT inhibitors (Akt kinase): > 0.80
6 | Cn1nccc1Nc1nccc(-c2ccn([C@H](CO)c3ccc(Cl)c(F)c3)c(=O)c2)n1 [GDC-0994] | – | – | signature match at higher concentrations (HDAC inhibitors) (HDAC; HepG2, 24 h, above 2.2 uM): matched the invariant signature of HDAC inhibitors
7 | CCN(CC)C(=O)c1ccc(Nc2nc(OCC3CCCCC3)c3[nH]cnc3n2)cc1 [NU6140, reference compound] | – | – | similarity r to the signature for a cadmium salt (HepG2 cells [3]; at 20 uM): 0.71; concentration with signature similar to the invariant signature for CDK inhibitors (CDK): 6.7 µM
8 | NC(=O)N/N=C/c1ccc([N+](=O)[O-])o1 [Nitrofurazone, reference compound] | 0* | – | Pearson correlation with the mETC TFAP, r ([2]; 24 h): 0.856
9 | CO/C=C(/C(=O)OC)c1ccccc1COc1cccc(C(F)(F)F)n1 [Picoxystrobin] | 1 | 0.885 | –
10 | CCN(CC)c1ccc2c(-c3ccccc3C(=O)O)c3ccc(=[N+](CC)CC)cc-3oc2c1.[Cl-] [Rhodamine B] | 0 | 0.810 | –
11 | CCc1cccc(C)c1N(C(=O)CCl)[C@@H](C)COC [S-Metolachlor] | 0 | 0.856 | –
12 | O.O.O.O.[Na+].[O-]c1ccccc1-c1ccccc1 [Sodium 2-phenylphenate tetrahydrate] | 1 | 0.807 | –
13 | Cc1cc(C)c(C2=C(OC(=O)CC(C)(C)C)C3(CCCC3)OC2=O)c(C)c1 [Spiromesifen] | 1 | 0.816 | –
14 | COC(=O)Nc1ccc(Cl)c(Cl)c1 [Swep] | 1 | 0.927 | –
15 | Nc1c2c(nc3ccccc13)CCCC2 [Tacrine, reference compound] | 0* | – | Pearson correlation with the mETC TFAP, r ([2]; 24 h): 0.810
16 | Cc1c(C)c2c(c(C)c1O)CCC(C)(COc1ccc(CC3SC(=O)NC3=O)cc1)O2 (centres unmarked) [Troglitazone] | – | – | maximum plasma concentration [4]: 6.4 µM; similarity r with the TFAP for hydrogen peroxide (HepG2 cells [3]; at 60 uM): > 0.8; concentration of transformation into tertiary signature (HepG2 cells [5]): 60 µM; concentration of transformation of primary TFAP into secondary TFAP (threshold for off-target effects) (HepG2 cells [5]): 20 µM; cell death (HG19/HepG2 cells): caused cell death
17 | COP(=O)(OC)O/C(=C\Cl)c1cc(Cl)c(Cl)cc1Cl [Z-Tetrachlorvinphos] | 1 | 0.892 | –
18 | CN(C)c1ccc(C(=N)c2ccc(N(C)C)cc2)cc1 [auramine, auramine O] | – | – | DNA damage TFAP elicited (weak or strong damage cluster) (DNA damage): only the strong damage TFAP
19 | [Cl][Cd][Cl] [cadmium chloride] | – | – | retrieved by querying the Attagene dataset with the invariant UPP signature [6]: retrieved
20 | CCO [ethanol] | – | – | retrieved by querying the TFAP database with the invariant signature for AKT inhibitors (Akt kinase): retrieved
21 | O=c1[nH]c(=O)n([C@H]2C[C@H](O)[C@@H](CO)O2)cc1F [floxuridine] | – | – | DNA damage TFAP elicited (weak or strong damage cluster) (DNA damage): only the weak damage TFAP
22 | CC(C)C(=O)O [isobutyric acid] | – | – | retrieved by querying the Attagene dataset with the HDAC TFAP (HDAC): retrieved
23 | Fc1ccc([C@@H]2CCNC[C@H]2COc2ccc3c(c2)OCO3)cc1 [paroxetine, reference compound] | – | – | retrieved by querying the TFAP database with the invariant signature for AKT inhibitors (Akt kinase): retrieved
24 | CCc1ccc(CCOc2ccc(CC3SC(=O)NC3=O)cc2)nc1 (centres unmarked) [pioglitazone] | – | – | concentration of transformation of primary TFAP into secondary TFAP (threshold for off-target effects) (HepG2 cells [5]): 180 µM
25 | CC(/C=C/C(=O)NO)=C\[C@@H](C)C(=O)c1ccc(N(C)C)cc1 [trychostatin] | – | – | retrieved by querying the Attagene dataset with the HDAC TFAP (HDAC): retrieved
26 | Bisphenol A glycidyl methacrylate | 1 | 0.939 | –
27 | Chlorpyrifos oxon | 1 | 0.827 | –
28 | Dinocap | 1 | 0.897 | –
29 | Mancozeb | 0* | 0.867 | –
30 | triphenyltin | – | – | retrieved by querying the Attagene dataset with the invariant UPP signature ([6]; HepG2, ToxCast TFAP dataset): retrieved
